Reference: ChEMBL document CHEMBL1201862, “PubChem BioAssay data set” (2004)
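These data come from cells grown in 96-well plates and exposed to compound for 48 hours at five concentrations. The concentration for 50% growth inhibition is given as GI50.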 The source made the active and inactive calls. Cut-off read from the data, not from the text of the source: active = GI50 up to about 1.1 µM and inactive = higher.

Tests used:
Experiment in all cases: inhibition of tumour cell growth, NCI panel, 48 h
[1] = test system: OVCAR-5
[2] = test system: LOX IMVI
[3] = test system: SK-OV-3
[4] = test system: SF-539
[5] = test system: CCRF-CEM
[6] = test system: HOP-92
[7] = test system: SNB-75
[8] = test system: HOP-62
[9] = test system: A498
[10] = test system: A549
[11] = test system: HCC 2998
[12] = test system: SR
[13] = test system: UO-31
[14] = test system: UACC-257
[15] = test system: SK-MEL-2
[16] = test system: CAKI-1
[17] = test system: NCI-H226
[18] = test system: HCT-15
[19] = test system: UACC-62
[20] = test system: 786-0

Row | SMILES | GI50 [1] | GI50 [2] | GI50 [3] | GI50 [4] | GI50 [5] | GI50 [6] | GI50 [7] | GI50 [8] | GI50 [9] | GI50 [10] | GI50 [11] | GI50 [12] | GI50 [13] | GI50 [14] | GI50 [15] | GI50 [16] | GI50 [17] | GI50 [18] | GI50 [19] | GI50 [20]
1 | CN(CCCNc1ccc2ncn3c4ccccc4c(=O)c1c23)CCCN1C(=O)c2cccc3cc([N+](=O)[O-])cc(c23)C1=O | 1.14 µM (inactive) | 0.00771 µM (active) | 1.28 µM (inactive) | 0.00548 µM (active) | 0.0614 µM (active) | 1.04 µM (active) | 0.018 µM (active) | 0.0472 µM (active) | 1.4 µM (inactive) | 0.00628 µM (active) | 0.0115 µM (active) | 0.001 µM (active) | 0.015 µM (active) | 0.0867 µM (active) | 1.58 µM (inactive) | 0.029 µM (active) | 0.00603 µM (active) | 0.0153 µM |  | 
2 | CNC1=C(C)C(=O)C2=C(C1=O)C(COC(N)=O)C1(OC)C3NC3CN21 (stereo not given) | 4.91 µM (inactive) | 0.152 µM (active) | 1.27 µM (inactive) | 0.183 µM (active) | 4.19 µM (inactive) | > 10 µM (inactive) | 0.141 µM (active) | 0.092 µM (active) | 0.632 µM (active) | 0.106 µM (active) | 0.313 µM (active) | 0.0462 µM (active) | 2.19 µM (inactive) | 0.951 µM (active) | 1.15 µM (inactive) | 0.0653 µM (active) | 0.543 µM (active) | 0.391 µM | 0.221 µM (active) | 
3 | CC1(C)O[C@@H](C[C@]2(C#N)C[C@H](CCl)OC(C)(C)O2)C[C@@H](C#N)O1 | > 100 µM (inactive) | > 100 µM (inactive) | > 100 µM (inactive) | > 100 µM (inactive) | > 100 µM (inactive) | 78.9 µM (inactive) | > 100 µM (inactive) | > 100 µM (inactive) | > 100 µM (inactive) | > 100 µM (inactive) | > 100 µM (inactive) | > 100 µM (inactive) | > 100 µM (inactive) | > 100 µM (inactive) | > 100 µM (inactive) | > 100 µM (inactive) | > 100 µM (inactive) | > 100 µM | > 100 µM (inactive) | > 100 µM (inactive)
4 | O=C1Sc2ccccc2/C1=N/Nc1ccccc1[N+](=O)[O-] | > 100 µM (inactive) | > 100 µM (inactive) | 86.9 µM (inactive) | 69.5 µM (inactive) | > 100 µM (inactive) | > 100 µM (inactive) | 0.281 µM (active) | > 100 µM (inactive) | > 100 µM (inactive) | > 100 µM (inactive) | > 100 µM (inactive) | > 100 µM (inactive) | > 100 µM (inactive) | > 100 µM (inactive) | > 100 µM (inactive) | 77.3 µM (inactive) | > 100 µM (inactive) | > 100 µM | > 100 µM (inactive) | 
5 | C=C1C[C@@H]2C[C@@H](C)CC(O)[C@]2(CCCN)C1O (stereo not given in full) | > 100 µM (inactive) | > 100 µM (inactive) | > 100 µM (inactive) | > 100 µM (inactive) | > 100 µM (inactive) | > 100 µM (inactive) | > 100 µM (inactive) | > 100 µM (inactive) | > 100 µM (inactive) | > 100 µM (inactive) | > 100 µM (inactive) | > 100 µM (inactive) | > 100 µM (inactive) | > 100 µM (inactive) | > 100 µM (inactive) | > 100 µM (inactive) | > 100 µM (inactive) |  | > 100 µM (inactive) | > 100 µM (inactive)
